From US20100098662A1, “TREATMENT OF LIVER DISEASES IN WHICH IRON PLAYS A ROLE IN PATHOGENESIS” (priority 2005, published 2010)

Assays:
[1] = Clinical dose-escalation trial of Compound I: pharmacokinetics; type: in vivo, human
Protocol: (§1) A randomized, double-blind, placebo-controlled, dose-escalation trial of Compound I in 24 adult β-thalassemia patients in which the safety, tolerability, PK and cumulative iron balance of 12 days of Compound I are assessed (10 mg/kg (n=5), 20 mg/kg (n=6), 40 mg/kg (n=7), and placebo (n=6).

[2] = test system: adult β-thalassemia patients; experiment: Clinical dose-escalation trial of Compound I: iron balance and efficiency of chelation; type: in vivo, human
Protocol: as §1
Efficiency of chelation is based on average daily net iron excretion, and is calculated as the ratio between […], relative to body weight. The theoretical amount of iron is obtained from the consideration that two molecules of Compound I are needed to chelate a single atom of iron. The molecular weight of Compound I being 373.4, and that of iron 55.85. The efficiency is therefore calculated as:
Efficiency=(Feexcr*2*373.4)/(DoseCompound×55.85)×100%) • DoseCompound and Feexcr are given in mg/kg body weight.

[3] = test system: Long-Evans cinnamon (LEC) rat; experiment: Spontaneous acute hepatitis in LEC rat model; type: in vivo; details: male LEC rats, oral 14 and 28 mg/kg/day
Protocol: Long-Evans cinnamon (LEC) rat is a mutant strain displaying hereditary hepatitis and spontaneous liver cancer. Compound I has been tested for efficacy on acute hepatitis in LEC rat model.
Methods: Compound I was administered orally to male LEC rats by gavage on does of 0, 14 and 28 mg/kg/day, starting at 6-week-old and continuing till 18-week-old. Each four rats were sacrificed on 9, 12, 14, 16 and 18-week-old in Compound I—treated groups and control group.
On sacrificing, peripheral blood was collected for monitoring the biochemical markers, including the serum alanine transaminase (ALT). Liver tissue were histologically examined.

[4] = test system: thalassemia patients (iron-overloaded); experiment: ALT values of thalassemia patients after one year of treatment; type: in vivo, human
Protocol: (§2) Patients were iron-overloaded patients and were treated with different doses of Compound I for one year.
(§3) ALT was measured according to standard biomedical techniques, e.g. using the International Federation of Clinical Chemistry reference method as described in Brinkmann T, Dreier J, Diekmann J, Gotting C, Klauke R, Schumann G, Kleesiek K. Alanine aminotransferase cut-off values for blood donor screening using the new International Federation of Clinical Chemistry reference method at 37 degrees C. Vox Sang. 2003 85(3): 159-64.
(§4) The baseline ALT value is defined as the patient ALT value determined for the patient at the stage of enrollment in the clinical trial, i.e. the ALT baseline value is the ALT value of the patient before starting Compound I treatment.

[5] = test system: rare anemia patients (iron-overloaded); experiment: ALT values of rare anemia patients after one year of treatment; type: in vivo, human
Protocol: as §2, §3, §4

Exposure (Cmax and AUC) increase with dose ([1]; after single dose administration): slightly over-proportionally
Exposure (Cmax and AUC) increase with dose ([1]; during steady state): approximately proportional
half-life ([1]; human, blood, at steady state, read-out: mean elimination half-life t1/2): 12 to 13 h
absorption ([1]; β-thalassemia patients, 10, 20, 40 mg/kg, 12 days): rapidly absorbed
SMILES: O=C(O)c1ccc(-n2nc(-c3ccccc3O)nc2-c2ccccc2O)cc1 [Compound I, 4-[3,5-Bis-(2-hydroxyphenyl)-[1,2,4]-triazol-1-yl]benzoic acid]
Negative iron balance (average daily net iron excretion) ([2]; 10 mg/kg dose): approximately 0.127 mg/kg/day
efficiency of chelation ([2]; 10 mg/kg dose group): 16%
efficiency of chelation ([2]; 20 mg/kg): 22%
Negative iron balance (average daily net iron excretion) ([2]; 20 mg/kg dose): ~0.343 mg/kg/day
efficiency of chelation ([2]; 40 mg/kg): 15%
Negative iron balance (average daily net iron excretion) ([2]; 40 mg/kg dose): ~0.564 mg/kg/day
iron excretion ([2]; iron balance studies, almost entirely in the feces): dose-dependent increase
Hepatic iron accumulation assessed by Prussian blue staining vs control group [3]: markedly reduced
serum ALT level vs control group ([3]; at 18-week-old): significantly lower
Mean of ALT ([4]; 5 mg/kg/day): 35.25 Units/liter
Mean of ALT ([4]; 10 mg/kg/day): 26.62 Units/liter
Mean of ALT ([4]; 20 mg/kg/day): 3.17 Units/liter
Mean of ALT ([4]; 30 mg/kg/day): −23.56 Units/liter
Mean of ALT ([5]; 5 mg/kg/day): 67.42 Units/liter
Mean of ALT ([5]; 10 mg/kg/day): 14.22 Units/liter
Mean of ALT ([5]; 20 mg/kg/day): −3.27 Units/liter
Mean of ALT ([5]; 30 mg/kg/day): −14.19 Units/liter
